Results on five molecules are retold here after article PMC8512555, “Patient-Derived Tumor Chemosensitization of GKB202, an Antrodia Cinnamomea Mycelium-Derived Bioactive Compound” (Molecules, 2021).

What all share (format): cell-based, human
Series [1] has as its system hepatocellular carcinoma (HCC) patient-derived circulating tumor cells. In words: Ex vivo viability assay (CellTiter-Glo) on patient-derived CTC spheroids, hepatocellular carcinoma. The settings on record: 6 days; for relative survival rate: vs untreated control cells; for anti-CTC effect compared with the 5-FU group: 4 and 20 µg/mL. As for the experimental part:
(§1) Patients who were diagnosed with oral cancer (OC), hepatocellular carcinoma (HCC) and colorectal cancer (CRC) with stage III or IV were recruited and provided written informed consent to participate in this study. For patients enrolled, clinical profiles including initial cancer staging, medication information, and treatment responses were recorded. Peripheral blood (7.5 mL) was collected in vacated ethylenediaminetetraacetic acid (EDTA) tubes and peripheral blood mononuclear cells (PBMCs) were isolated by gradient gravity centrifugation using Ficoll-Paque. Blood was added to a LeucoSep tube filling with 15 mL of Ficoll-Paque Plus in the bottom of the frit and centrifuged to obtain the PBMC fraction. Then PBMC was resuspended in phosphate-buffered saline (PBS) containing 1% BSA, 2 mM EDTA where CTC was enriched by RosetteSep® CTC Enrichment Cocktail kit. Briefly, the PBMC pellet is incubated with antibodies at room temperature, followed by the addition of PBS containing 2% FBS to the diluted sample. The diluted sample was added on the top of Ficoll-Paque for another centrifugation, then enriched cells were obtained and suspended in DMEM/F12 medium containing EGF, bFGF, and B27 supplement. Cells were seeded onto a substrate of binary colloidal crystals (BCCs). The structure of BCCs has been reported for its ability to enhance the expansion of rare cancer cells. The medium was replaced in each well every four days. Tumor-derived CTC spheroids were checked by optical microscopy.
(§2) To test the anti-tumor activity of natural compounds, CTC spheroids were allowed to grow for four weeks then spheroids were collected to seed into other BCC plates and incubated for 16 h. Two chemotherapy drugs used as the positive control including 5-FU (30 µM), Cisplatin (14.4 µM), GKA201, GKB202 and GKC203 (4 µg/mL and 20 µg/mL) were added to cells and incubated for six days. Cell viability was determined by a CellTiter-Glo® Luminescent Cell Viability Assay (Promega Corporation, Madison, WI, US) where cells were incubated with a Cell-Titer Glo reagent for 10 min and the luminescence was read on a GloMax® Navigator Microplate Luminometer (Promega Corporation, Madison, WI, US). The relative cell viability was calculated as the percentage of cells treated with drugs or natural compounds compared with untreated control cells.

The subject of series [2] is colorectal cancer (CRC) patient-derived circulating tumor cells. In words: Ex vivo viability assay (CellTiter-Glo) on patient-derived CTC spheroids, colorectal cancer. The settings on record: 6 days; for relative survival rate: vs untreated control cells; for anti-CTC effect compared with the 5-FU group: 4 and 20 µg/mL. As for the experimental part:
as §1, §2
In general terms: ATP-based viability assays read luminescence as a measure of living cells.

Series [3] has as its system oral cancer (OC) patient-derived circulating tumor cells. In words: Ex vivo viability assay (CellTiter-Glo) on patient-derived CTC spheroids, oral cancer. The conditions noted are these: for relative survival rate / anti-CTC effect compared with the 5-FU group: 6 days; for relative survival rate: vs untreated control cells; for drug sensitivity of OC patient organoids: Cisplatin and Carboplatin at the same concentration, Figure S3; for anti-CTC effect compared with the 5-FU group: 4 and 20 µg/mL. As for the experimental part: as §1, §2

Molecules are shown by their SMILES.

On to `O=c1[nH]cc(F)c(=O)[nH]1` [5-FU], for which the relative survival rate turned out to be 43 ± 2% in series [1] (5-FU 30 µM), 49 ± 13% in series [2] (5-FU 30 µM) and 51 ± 13% in series [3] (5-FU 30 µM).
For `N.N.O=C([O-])C1(C(=O)[O-])CCC1.[Pt+2]` [Carboplatin], the “drug sensitivity of OC patient organoids” value in series [3] is “resistant”.
As for `N.N.[Cl][Pt][Cl]` [Cisplatin], the relative survival rate in series [1] (Cisplatin 14.4 µM) stood at 28 ± 5.8%; in series [2] (Cisplatin 14.4 µM) it was 49 ± 10%; in series [3] (Cisplatin 14.4 µM) it was 21 ± 0.3%. In addition, in series [3], the “drug sensitivity of OC patient organoids” value is listed as “sensitive”.
Regarding `CC(C)=CCOc1ccc(C2=C(CC(C)C)C(=O)OC2=O)cc1` [GKA201], the “anti-CTC effect compared with the 5-FU group” value in series [1], in series [2] and in series [3] was “no significance” in each case.
Turning to `CC(C)=CCOc1ccc(C2=C(CC(C)C)C(=O)N(O)C2=O)cc1` [GKC203], the “anti-CTC effect compared with the 5-FU group” value in series [1], in series [2] and in series [3] was “no significance” each time.
